# Experimental data as given in patent US10669240B2, “5-substituted indazole-3-carboxamides and preparation and use thereof” (Samumed, LLC, priority 2014, dated 2020).
# Target: DYRK1A (Homo sapiens (Human), UniProt Q13627)
# Assay: DYRK1A activity Tau assay: pSer396 Tau in SH-SY5Y cells by ELISA / western blot
# Type: cell-based
# Settings: overnight (16-18 h) exposure
row,EC50 [nM],SMILES
1,31,"O=C(NC1CCOCC1)c1n[nH]c2ccc(-c3cccnc3)cc12 [Compound 2, 5-(Pyridin-3-yl)-N-(tetrahydro-2H-pyran-4-yl)-1H-indazole-3-carboxamide]"
2,55,"CC(C)NC(=O)c1n[nH]c2ccc(-c3cccnc3)cc12 [Compound 7, N-Isopropyl-5-(pyridin-3-yl)-1H-indazole-3-carboxamide]"
3,52,"O=C(NC1Cc2ccccc2C1)c1n[nH]c2ccc(-c3cccnc3)cc12 [Compound 22, N-(2,3-Dihydro-1H-inden-2-yl)-5-(pyridin-3-yl)-1H-indazole-3-carboxamide]"
4,28,"O=C(NC1Cc2ccccc2C1)c1n[nH]c2ccc(-c3cncc(CN4CCCC4)c3)cc12 [Compound 25, N-(2,3-Dihydro-1H-inden-2-yl)-5-(5-(pyrrolidin-1-ylmethyl)pyridin-3-yl)-1H-indazole-3-carboxamide]"
5,1,"O=C(NCc1ccccc1)c1n[nH]c2ccc(-c3cncc(CN4CCCCC4)c3)cc12 [Compound 26, N-Benzyl-5-(5-(piperidin-1-ylmethyl)pyridin-3-yl)-1H-indazole-3-carboxamide]"
6,279,"O=C(NC1(c2ccccc2)CC1)c1n[nH]c2ccc(-c3cccnc3)cc12 [Compound 32, N-(1-Phenylcyclopropyl)-5-(pyridin-3-yl)-1H-indazole-3-carboxamide]"
7,233,"O=C(NC1(c2ccccc2)CC1)c1n[nH]c2ccc(-c3cncc(CN4CCCC4)c3)cc12 [Compound 34, N-(1-Phenylcyclopropyl)-5-(5-(pyrrolidin-1-ylmethyl)pyridin-3-yl)-1H-indazole-3-carboxamide]"
8,158,"O=C(NC1(c2ccccc2)CC1)c1n[nH]c2ccc(-c3cncc(CN4CCCCC4)c3)cc12 [Compound 36, N-(1-Phenylcyclopropyl)-5-(5-(piperidin-1-ylmethyl)pyridin-3-yl)-1H-indazole-3-carboxamide]"
9,372,"O=C(Nc1ccc(C(F)(F)F)cn1)c1n[nH]c2ccc(-c3cccnc3)cc12 [Compound 40, 5-(Pyridin-3-yl)-N-(5-(trifluoromethyl)pyridin-2-yl)-1H-indazole-3-carboxamide]"
10,118,"O=C(Nc1cc(C(F)(F)F)ccn1)c1n[nH]c2ccc(-c3cccnc3)cc12 [Compound 41, 5-(Pyridin-3-yl)-N-(4-(trifluoromethyl)pyridin-2-yl)-1H-indazole-3-carboxamide]"
11,115,"O=C(Nc1cccc(C(F)(F)F)n1)c1n[nH]c2ccc(-c3cccnc3)cc12 [Compound 42, 5-(Pyridin-3-yl)-N-(6-(trifluoromethyl)pyridin-2-yl)-1H-indazole-3-carboxamide]"
12,4,"O=C(Nc1ncc(F)cc1F)c1n[nH]c2ccc(-c3cccnc3)cc12 [Compound 46, N-(3,5-Difluoropyridin-2-yl)-5-(pyridin-3-yl)-1H-indazole-3-carboxamide]"
13,2,"O=C(Nc1ccc(F)cn1)c1n[nH]c2ccc(-c3cncc(CN4CCCCC4)c3)cc12 [Compound 57, N-(5-Fluoropyridin-2-yl)-5-(5-(piperidin-1-ylmethyl)pyridin-3-yl)-1H-indazole-3-carboxamide]"
14,13,"O=C(Nc1ncccc1C(F)(F)F)c1n[nH]c2ccc(-c3cncc(CN4CCCCC4)c3)cc12 [Compound 59, 5-(5-(Piperidin-1-ylmethyl)pyridin-3-yl)-N-(3-(trifluoromethyl)pyridin-2-yl)-1H-indazole-3-carboxamide]"
15,20,"O=C(Nc1cc(C(F)(F)F)ccn1)c1n[nH]c2ccc(-c3cncc(CN4CCCCC4)c3)cc12 [Compound 60, 5-(5-(Piperidin-1-ylmethyl)pyridin-3-yl)-N-(4-(trifluoromethyl)pyridin-2-yl)-1H-indazole-3-carboxamide]"
16,10,"O=C(Nc1ccc(C(F)(F)F)cn1)c1n[nH]c2ccc(-c3cncc(CN4CCCCC4)c3)cc12 [Compound 61, 5-(5-(Piperidin-1-ylmethyl)pyridin-3-yl)-N-(5-(trifluoromethyl)pyridin-2-yl)-1H-indazole-3-carboxamide]"
17,5,"O=C(Nc1cccc(C(F)(F)F)n1)c1n[nH]c2ccc(-c3cncc(CN4CCCCC4)c3)cc12 [Compound 62, 5-(5-(Piperidin-1-ylmethyl)pyridin-3-yl)-N-(6-(trifluoromethyl)pyridin-2-yl)-1H-indazole-3-carboxamide]"
18,1,"[2H]C([2H])(c1cncc(-c2ccc3[nH]nc(C(=O)Nc4cccnc4)c3c2)c1)N1CCCCC1 [Compound 63, 5-(5-(piperidin-1-ylmethyl-d2)pyridin-3-yl)-N-(pyridin-3-yl)-1H-indazole-3-carboxamide]"
19,1,"O=C(Nc1ccnc(N2CCCCC2)c1)c1n[nH]c2ccc(-c3cncc(CN4CCCCC4)c3)cc12 [Compound 101, N-(2-(Piperidin-1-yl)pyridin-4-yl)-5-(5-(piperidin-1-ylmethyl)pyridin-3-yl)-1H-indazole-3-carboxamide]"
20,4,"O=C(Nc1ccnc(N2CCCC2)c1)c1n[nH]c2ccc(-c3cccnc3)cc12 [Compound 102, 5-(Pyridin-3-yl)-N-(2-(pyrrolidin-1-yl)pyridin-4-yl)-1H-indazole-3-carboxamide]"
21,10,"O=C(NC1CC1)c1n[nH]c2ccc(-c3cncc(N4CCCC4)c3)cc12 [Compound 143, N-Cyclopropyl-5-(5-(pyrrolidin-1-yl)pyridin-3-yl)-1H-indazole-3-carboxamide]"

# Further lines, the compound ahead of its results:
row,SMILES,EC50 [nM]
1,"CN1CCC(NC(=O)c2n[nH]c3ccc(-c4cncc(CN5CCC(F)(F)C5)c4)cc23)CC1 [Compound 10, 5-(5-((3,3-Difluoropyrrolidin-1-yl)methyl)pyridin-3-yl)-N-(1-methylpiperidin-4-yl)-1H-indazole-3-carboxamide]",8
2,"O=C(NC1CCCCC1)c1n[nH]c2ccc(-c3cccc(F)c3)cc12 [Compound 12, N-Cyclohexyl-5-(3-fluorophenyl)-1H-indazole-3-carboxamide]",> 10000
3,"O=C(NC1CCOCC1)c1n[nH]c2ccc(-c3cccc(F)c3)cc12 [Compound 13, 5-(3-Fluorophenyl)-N-(tetrahydro-2H-pyran-4-yl)-1H-indazole-3-carboxamide]",332
4,"CN1CCC(NC(=O)c2n[nH]c3ccc(-c4ccccc4)cc23)CC1 [Compound 14, N-(1-Methylpiperidin-4-yl)-5-phenyl-1H-indazole-3-carboxamide]",1150
5,"CN1CCC(NC(=O)c2n[nH]c3ccc(-c4cccc(F)c4)cc23)CC1 [Compound 15, 5-(3-Fluorophenyl)-N-(1-methylpiperidin-4-yl)-1H-indazole-3-carboxamide]",324
6,"CN1CCC(NC(=O)c2n[nH]c3ccc(-c4ccc(F)cc4)cc23)CC1 [Compound 17, 5-(4-Fluorophenyl)-N-(1-methylpiperidin-4-yl)-1H-indazole-3-carboxamide]",9000
7,"CN1CCC(NC(=O)c2n[nH]c3ccc(-c4ccc(F)cc4F)cc23)CC1 [Compound 18, 5-(2,4-Difluorophenyl)-N-(1-methylpiperidin-4-yl)-1H-indazole-3-carboxamide]",454
8,"CN1CCC(NC(=O)c2n[nH]c3ccc(-c4cccc(F)c4F)cc23)CC1 [Compound 20, 5-(2,3-Difluorophenyl)-N-(1-methylpiperidin-4-yl)-1H-indazole-3-carboxamide]",29
9,"CN(C)Cc1cncc(-c2ccc3[nH]nc(C(=O)NC4Cc5ccccc5C4)c3c2)c1 [Compound 23, N-(2,3-Dihydro-1H-inden-2-yl)-5-(5-((dimethylamino)methyl)pyridin-3-yl)-1H-indazole-3-carboxamide]",31
10,"O=C(NC1Cc2ccccc2C1)c1n[nH]c2ccc(-c3cncc(CN4CCCCC4)c3)cc12 [Compound 24, N-(2,3-Dihydro-1H-inden-2-yl)-5-(5-(piperidin-1-ylmethyl)pyridin-3-yl)-1H-indazole-3-carboxamide]",15
11,"O=C(NCc1cccc(F)c1)c1n[nH]c2ccc(-c3cc(F)cc(CN4CCCCC4)c3)cc12 [Compound 30, 5-(3-Fluoro-5-(piperidin-1-ylmethyl)phenyl)-N-(3-fluorobenzyl)-1H-indazole-3-carboxamide]",120
12,"O=C(NCc1cc(F)cc(F)c1)c1n[nH]c2ccc(-c3cc(F)cc(CN4CCCCC4)c3)cc12 [Compound 31, N-(3,5-Difluorobenzyl)-5-(3-fluoro-5-(piperidin-1-ylmethyl)phenyl)-1H-indazole-3-carboxamide]",118
13,"CN(C)Cc1cncc(-c2ccc3[nH]nc(C(=O)NC4(c5ccccc5)CC4)c3c2)c1 [Compound 37, 5-(5-((Dimethylamino)methyl)pyridin-3-yl)-N-(1-phenylcyclopropyl)-1H-indazole-3-carboxamide]",196
14,"O=C(Nc1c(F)cncc1F)c1n[nH]c2ccc(-c3cncc(CN4CCCCC4)c3)cc12 [Compound 79, N-(3,5-Difluoropyridin-4-yl)-5-(5-(piperidin-1-ylmethyl)pyridin-3-yl)-1H-indazole-3-carboxamide]",1
15,"CC(C)N1CCC(NC(=O)c2n[nH]c3ccc(-c4cccc(F)c4F)cc23)CC1 [Compound 92, 5-(2,3-Difluorophenyl)-N-(1-isopropylpiperidin-4-yl)-1H-indazole-3-carboxamide]",100
16,"CC(C)CN1CCC(NC(=O)c2n[nH]c3ccc(-c4cccc(F)c4F)cc23)CC1 [Compound 93, 5-(2,3-Difluorophenyl)-N-(1-isobutylpiperidin-4-yl)-1H-indazole-3-carboxamide]",73
17,"CN1CCC(NC(=O)c2n[nH]c3ccc(-c4ccc(C(F)(F)F)nc4)cc23)CC1 [Compound 94, N-(1-Methylpiperidin-4-yl)-5-(6-(trifluoromethyl)pyridin-3-yl)-1H-indazole-3-carboxamide]",> 10000
18,"CC(C)NC(=O)c1n[nH]c2ccc(-c3cncc(CN4CCC4)c3)cc12 [Compound 128, 5-(5-(Azetidin-1-ylmethyl)pyridin-3-yl)-N-isopropyl-1H-indazole-3-carboxamide]",43
19,"CC(C)NC(=O)c1n[nH]c2ccc(-c3cncc(CN4CCCCC4)c3)cc12 [Compound 131, N-Isopropyl-5-(5-(piperidin-1-ylmethyl)pyridin-3-yl)-1H-indazole-3-carboxamide]",10
20,"CC(C)NC(=O)c1n[nH]c2ccc(-c3cccc(F)c3F)cc12 [Compound 140, 5-(2,3-Difluorophenyl)-N-isopropyl-1H-indazole-3-carboxamide]",576
